For series [1] the following is noted: in terms of weight ratio; cited from earlier work.
Series [2] is described as follows: Dissolution time in 900 ml water (20° C.), 1-L elution tester, Japanese Pharmacopoeia Paddle method, 100 rpm. The series is classed as physicochemical. The method, then:
A predetermined amount of the sample was introduced into 900 ml water (20° C.) in a 1-L elution tester (the Japanese Pharmacopoeia, Paddle method, 100 rpm) and its dissolution time was measured (end point was visually confirmed).
Specifically, 1 g of the sample taken from each mixture consisting of NM C-type crystals (average particle size (diameter) of about 100 μm) and ACE-K raw powder (average particle size of about 20 μm) at a predetermined ratio (ACE-K content (% by weight)) shown in Table 1 below, was weighed and measured for its dissolution time. For comparison, 1.00 g, 0.90 g, 0.80 g, 0.50 g, 0.10 g, and 0.03 g samples were taken from said NM crystals and their dissolution times were determined in the same manner.
The dissolution times of mixtures of NM and ACE-K were measured in the same manner as in Experimental Example 1 except that NM A-type crystals were used in place of NM C-type crystals.
The sample amount for each mixture and the amount of NM alone (NM A-type crystals) were the same as that in Example 1.
The same NM crystals as those in Experimental Example 1 were used as NM, and the same ACE-K powder (average particle size (diameter) of about 20 μm) as that in Experimental Example 1 was used as ACE-K, and the dissolution times thereof were determined in the same manner as in Experimental Example 1.
That is, 0.5 g each of both of them was weighed (1.0 g in total) and introduced simultaneously without being previously mixed, into the elution tester (separate addition). For reference, the dissolution time of 0.5 g NM C-type crystals alone (Experimental Example 1) is also shown together in the table.

Series [3] can be described thus: Quality of sweetness compared to sucrose (early taste, later taste, astringent taste). The following applies: found by the present inventors. The text has this:
It is reported that the sweetness strength or sweetening potency of the synthetic high-potency sweetener, NM, is about 10,000 times that of sucrose in terms of weight ratio (Japanese Patent Kohyou Publication JP-A-8-503206). […] Further, NM has a strong astringent taste. Accordingly, the balance of the quality of sweetness properties for NM is poor when compared to sucrose. Sucrose is generally regarded as the standard for evaluating the properties or characteristics of the quality of sweetness.

For the compound `CC1=CC(=O)[N-]S(=O)(=O)O1.[K+]` [ACE-K, Acesulfame K], the “Sweetness strength or sweetening potency” value in series [1] is “about 200 times that of sucrose”.

In turn, `COC(=O)[C@H](Cc1ccccc1)NC(=O)[C@H](CC(=O)O)NCCC(C)(C)C` [NM A-type crystals, N-{N-(3,3-dimethylbutyl)-L-α-aspartyl}-L-phenylalanine 1-methyl ester, reference compound] showed a Dissolution time in series [2] (NM A-type crystals alone, 0.80 g in 900 ml water, 20° C.) of 38 min.

In series [2] (NM C-type crystals alone, 0.80 g in 900 ml water, 20° C.), `COC(=O)[C@H](Cc1ccccc1)NC(=O)[C@H](CC(=O)O)NCCC(C)(C)C` [NM C-type crystals, N-{N-(3,3-dimethylbutyl)-L-α-aspartyl}-L-phenylalanine 1-methyl ester] yielded a Dissolution time of 58 min.

For the compound `COC(=O)[C@H](Cc1ccccc1)NC(=O)[C@H](CC(=O)O)NCCC(C)(C)C` [NM, N-{N-(3,3-dimethylbutyl)-L-α-aspartyl}-L-phenylalanine 1-methyl ester], in series [1], the “Sweetness strength or sweetening potency” value is on record as “about 10,000 times that of sucrose”. In series [3] (compared to sucrose), the Early taste entry is “extremely weak” and the Later taste entry is recorded as “extremely strong”. The Astringent taste entry in series [3] is recorded as “strong”. For the same compound, the Dissolution time entry in series [2] (0.51 g of NM alone (amount of equal sweetness to 1 g mixture containing 50% ACE-K)) is reported as “about 60 minutes”.

Source of the values: patent publication US6372279B1, “Sweetener composition” (Ajinomoto Co., Inc., priority 1998, dated 2002).
